Values quoted from earlier work, collected in patent US5786344A, “Camptothecin drug combinations and methods with reduced side effects” (priority 1995, dated 1998).
“Also recorded” adds a separate entry of the source. Counter-ions that a name gives are not always drawn. Like-named read-outs stand apart in the source and are kept apart here.

How the values were obtained:
p-glycoprotein = settings: cited from earlier work; for inhibition of photoaffinity labeling of p-glycoprotein: photolabeling
[1] = cited from earlier work; for plasma concentration: single dose 600 mg
[2] = cited from earlier work
[3] = tested on: multidrug resistant (MDR) cells; settings: cited from earlier work
plasma proteins = settings: cited from earlier work
[4] = listed as Trifluoperazine, dihydrochloride

Structure (SMILES): COc1cc([C@@H]2c3cc4c(cc3[C@@H](O[C@@H]3O[C@@H]5CO[C@@H](C)O[C@H]5[C@H](O)[C@H]3O)[C@H]3COC(=O)[C@H]23)OCO4)cc(OC)c1O [etoposide]
- inhibition of / interaction with p-glycoprotein (p-glycoprotein): interacted with p-glycoprotein
- peak plasma concentration ([1]; human, in vivo, iv): 30 µg/mL
- oral absorption ([1]; human, in vivo, po): about 50%
- concentration in CSF relative to plasma ([1]; human, in vivo): 1-10%
- excreted unchanged (urine) ([1]; human, in vivo): Approximately 40%
- half-life ([1]; human, in vivo): about 8 hours

Structure (SMILES): CC(C)(Oc1ccc(C2CC2(Cl)Cl)cc1)C(=O)O (stereo not shown) [ciprofibrate]
- potency relative to clofibrate ([2]; human, in vivo): more potent than clofibrate

Structure (SMILES): CCN(CC)CCCC(C)Nc1ccnc2cc(Cl)ccc12 (stereo not shown) [Chloroquine]
- reversal of drug resistance [3]: partially reverses drug resistance

Structure (SMILES): C=CC1CN2CCC1CC2C(O)c1ccnc2ccc(OC)cc12 (stereo not shown) [Quinidine polygalacturonate]
- gastrointestinal side effects ([2]; human, in vivo): lesser incidence and severity of gastrointestinal side effects

Structure (SMILES): OCCN1CCN(CCCN2c3ccccc3Sc3ccc(C(F)(F)F)cc32)CC1 [Fluphenazine hydrochloride]
- onset of action ([2]; human, in vivo): ≤ 1 h
- potency relative to chlorpromazine / other phenothiazines ([2]; human, in vivo): more potent
- duration of action ([2]; oral or intramuscular): 6 h
- oral absorption ([1]; oral): absorbed rapidly

Structure (SMILES): OCCN1CCN(CC/C=C2/c3ccccc3Sc3ccc(C(F)(F)F)cc32)CC1 [cis-flupenthixol]
- reversal of drug resistance [3]: reversed cellular resistance to various drugs only in p-glycoprotein expressing cell lines

Structure (SMILES): CN1CCN(CCCN2c3ccccc3Sc3ccc(C(F)(F)F)cc32)CC1 [trifluoperazine, 1OH-Phenothiazine, 10-[3-(4-methyl-1-piperazinyl)propyl]-2-(trifluoromethyl)-, dihydrochloride]
- reversal of drug resistance ([3]; dihydrochloride): effectively reverse multidrug resistance
- reversal of drug resistance [3, 4]: reverses multidrug resistance
- inhibition of photoaffinity labeling of p-glycoprotein (p-glycoprotein; dihydrochloride): poor inhibitors
- inhibition of photoaffinity labeling of p-glycoprotein (p-glycoprotein; [4]): without inhibiting photoaffinity labeling

Structure (SMILES): CC(C)(Oc1ccc(Cl)cc1)C(=O)O [clofibric acid]
- plasma protein binding (plasma proteins): bound strongly to plasma proteins
- fraction metabolized ([1]; human, in vivo): About 60%
- half-life ([1]; human, in vivo): 6 to 25 h
- half-life in anuria ([1]; human, in vivo): over 100 hr
- half-life, average or usual ([1]; human, in vivo): 11 h

Structure (SMILES): CSc1ccc2c(c1)N(CCC1CCCCN1C)c1ccccc1S2 (stereo not shown) [Thioridazine, 10H-Phenothiazine, 10-[2-(1-methyl-2-piperidinyl)ethyl]-2-(methylthio)-]
- plasma protein binding (plasma proteins; plasma): 96-99%
- half-life, early phase ([1]; human, in vivo): 4 to 10 h
- half-life, late phase ([1]; human, in vivo): 26 to 36 h

Structure (SMILES): C[C@@H]1C[C@H]2[C@@H]3CCC4=CC(=O)C=C[C@]4(C)C3=CC[C@]2(C)[C@H]1C(=O)CN1CCN(c2cc(N3CCCC3)nc(N3CCCC3)n2)CC1 [Tirilazad]
- sensitivity of nonresistant parental cells ([3]; nonresistant parental cells): does not change the sensitivity of nonresistant parental cells
- sensitization of resistant cells to killing by vinblastine ([3]; resistant cells): 66 fold
- inhibition of / interaction with p-glycoprotein (p-glycoprotein): potent inhibitors
- inhibition of photoaffinity labeling of p-glycoprotein (p-glycoprotein): more effectively than does verapamil

Structure (SMILES): OCCN1CCN(CCCN2c3ccccc3Sc3ccc(C(F)(F)F)cc32)CC1 [fluphenazine]
- reversal of drug resistance [3]: reversed cellular resistance to various drugs only in p-glycoprotein expressing cell lines

Structure (SMILES): CCOC(=O)C1=C(C)NC(C)=C(C(=O)OC)C1c1cccc([N+](=O)[O-])c1 (stereo not shown) [Nitrendipine, 3,5-Pyridinedicarboxylic acid, 1,4-dihydro-2,6-dimethyl-4-(3-nitrophenyl)-, ethyl methyl ester]
- plasma protein binding (plasma proteins; plasma): About 98%
- bioavailability / dose reaching the systemic circulation ([1]; human, in vivo, po): 10-22%
- half-life, average or usual ([1]; human, in vivo): ~12 h

Structure (SMILES): CCCCCCC(=O)OCCN1CCN(CCCN2c3ccccc3Sc3ccc(C(F)(F)F)cc32)CC1 [Fluphenazine enanthate]
- duration of action ([2]; intramuscular or subcutaneous, listed as enanthate salt): 2 wk

Structure (SMILES): CC(C)(Oc1ccc(CCNC(=O)c2ccc(Cl)cc2)cc1)C(=O)O [bezafibrate]
- potency relative to clofibrate ([2]; human, in vivo): more potent than clofibrate

Structure (SMILES): OCCN1CCN(CC/C=C2\c3ccccc3Sc3ccc(C(F)(F)F)cc32)CC1 [trans-flupenthixol]
- reversal of drug resistance [3]: reversed cellular resistance to various drugs only in p-glycoprotein expressing cell lines; also recorded: fully reversed resistance to doxorubicin, vincristine, and colchicine
- potency for reversing MDR relative to verapamil ([3]; equimolar concentrations): two- to three-fold more potent
- clinical toxicity ([2]; human, in vivo): apparent lack of clinical toxicity

Structure (SMILES): CCCCCCCCCC(=O)OCCN1CCN(CCCN2c3ccccc3Sc3ccc(C(F)(F)F)cc32)CC1 [Fluphenazine decanoate]
- duration of action ([2]; intramuscular or subcutaneous): about 4 wk

Structure (SMILES): COc1ccc2cc1Oc1ccc(cc1)C[C@H]1c3c(cc4c(c3Oc3cc5c(cc3OC)CCN(C)[C@@H]5C2)OCO4)CCN1C [cepharanthine]
- inhibition of photoaffinity labeling of p-glycoprotein (p-glycoprotein): showed inhibition

Structure (SMILES): CN(C)CCCN1c2ccccc2Sc2ccc(C(F)(F)F)cc21 [Triflupromazine hydrochloride, 1OH-Phenothiazine-10-propanamine, N,N-dimethyl-2-(trifluoromethyl)-monohydrochloride]
- potency relative to chlorpromazine / other phenothiazines ([2]; human, in vivo): somewhat more potent

Structure (SMILES): C=C[C@@]1(C)CC(=O)[C@@H]2[C@@]3(C)CCCC(C)(C)[C@@H]3[C@H](O)[C@H](OC(C)=O)[C@@]2(C)O1 [1,9-dideoxyforskolina]
- inhibition of / interaction with p-glycoprotein (p-glycoprotein): p-glycoprotein inhibitors

Structure (SMILES): CC(=O)[C@H]1CC[C@H]2[C@@H]3CCC4=CC(=O)CC[C@]4(C)[C@H]3CC[C@]12C [progesterone]
- inhibition of / interaction with p-glycoprotein (p-glycoprotein): inhibited the transporting activity of p-glycoprotein; also recorded: inhibits their drug efflux

Structure (SMILES): COc1ccc(C[C@H](N)C(=O)N[C@H]2[C@@H](O)[C@H](n3cnc4c(N(C)C)ncnc43)O[C@@H]2CO)cc1 [puromycin]
- inhibition of / interaction with p-glycoprotein (p-glycoprotein): interacted with p-glycoprotein

Structure (SMILES): Cc1ccc(C)c(OCCCC(C)(C)C(=O)O)c1 [Gemfibrozil]
- potency relative to clofibrate ([2]; human, in vivo): more potent than clofibrate
- plasma concentration ([1]; after 2 hours): about 15 μg/ml
- plasma concentration ([1]; after 9 hours): ~5000 ng/mL

Structure (SMILES): OCCN(CCO)c1nc(N2CCCCC2)c2nc(N(CCO)CCO)nc(N3CCCCC3)c2n1 [Dipyridamole, [2,6-Bis(diethanolamino)-4,9-dipiperidinopyrimido-(5,4-d)pyrimidine]
- clinical toxicity ([2]; human, in vivo): quite nontoxic

Structure (SMILES): COc1cccc2c1C(=O)c1c(O)c3c(c(O)c1C2=O)C[C@@](O)(C(=O)CO)C[C@@H]3O[C@H]1C[C@H](N)[C@H](O)[C@H](C)O1 [doxorubicin, 5,12-Naphthacenedione, (8s-cis)-10-[(3-amino-2,3,6-trideoxy-α-L-lyxo-hexopyranosyl)oxy)-7,8,9,10-tetrahydro-6,8,11-trihydroxy-8-(hydroxyacetyl)-1-methoxy-hydrochloride]
- inhibition of / interaction with p-glycoprotein (p-glycoprotein): interacted with p-glycoprotein
- oral absorption ([1]; human, in vivo, po): absorbed poorly
- half-life ([1]; plasma/serum/terminal or elimination half-life): about 30 hr

Structure (SMILES): CC(C)OC(=O)C(C)(C)Oc1ccc(C(=O)c2ccc(Cl)cc2)cc1 [fenofibrate]
- potency relative to clofibrate ([2]; human, in vivo): more potent than clofibrate

Structure (SMILES): CN(C)CCCN1c2ccccc2Sc2ccc(Cl)cc21 [chlorpromazine]
- reversal of drug resistance [3]: effectively reverse multidrug resistance
- inhibition of photoaffinity labeling of p-glycoprotein (p-glycoprotein): poor inhibitors
